Tests used:
[1] = target: Horse butyrylcholinesterase (EC 3.1.1.8) (Equus caballus, UniProt P81908); test: Anticholinesterase assay; format: biochemical; conditions: Butyrylcholinesterase inhibition activity IC50 μM ± SEM, mean of three experiments with SEM; 15 min at 25 °C, pH 8.0
xanthine oxidase = conditions: ref Sheu and Chiang, 1997; cited from earlier work

Horse butyrylcholinesterase (EC 3.1.1.8), sequence (P81908 whole entry): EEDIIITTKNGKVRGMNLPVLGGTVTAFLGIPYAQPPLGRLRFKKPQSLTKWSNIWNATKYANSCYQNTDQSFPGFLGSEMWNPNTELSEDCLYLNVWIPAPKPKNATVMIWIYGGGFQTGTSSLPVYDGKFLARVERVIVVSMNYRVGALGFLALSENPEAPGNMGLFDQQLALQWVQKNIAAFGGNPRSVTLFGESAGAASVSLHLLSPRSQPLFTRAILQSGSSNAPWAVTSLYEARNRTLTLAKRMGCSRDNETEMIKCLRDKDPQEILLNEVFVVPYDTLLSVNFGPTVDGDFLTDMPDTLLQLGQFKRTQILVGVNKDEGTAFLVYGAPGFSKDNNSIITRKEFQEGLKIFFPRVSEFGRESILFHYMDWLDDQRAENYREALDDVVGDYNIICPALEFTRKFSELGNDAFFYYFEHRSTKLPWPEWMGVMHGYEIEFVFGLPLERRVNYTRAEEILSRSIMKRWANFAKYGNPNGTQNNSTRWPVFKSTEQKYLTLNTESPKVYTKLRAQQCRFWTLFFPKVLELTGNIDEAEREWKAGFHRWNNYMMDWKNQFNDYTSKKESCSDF

Structure (SMILES): Oc1ccc2c(O)c3ccccc3cc2c1O [Compound 1, anthracene-1,2,10-triol]
- IC50 [1]: 89.3 ± 0.21 µM
- xanthine oxidase inhibitory activity at concentration (xanthine oxidase): 68.35 µM

— publication PMC5506883 (Heliyon, 2017)
